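Abbreviation: GI50, concentration required for 50% inhibition of growth. TGI marks complete inhibition of growth.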
How the values were obtained:
Assay in all cases: DTP human tumour cell line panel, 384-well format
[1] = system: 786-0 renal
[2] = system: A498 renal
[3] = system: A549 NSCLC
[4] = system: ACHN renal
[5] = system: BT-549 breast
[6] = system: CAKI-1 renal
[7] = system: CCRF-CEM leukemia
[8] = system: COLO 205 colon
[9] = system: DU-145 prostate
[10] = system: HCC-2998 colon
[11] = system: HCT-116 colon
[12] = system: HCT-15 colon
[13] = system: HL-60(TB) leukemia
[14] = system: HOP-62 NSCLC
[15] = system: HOP-92 NSCLC
[16] = system: HT29 colon
[17] = system: IGROV1 ovarian
[18] = system: K-562 leukemia
[19] = system: KM12 colon
[20] = system: LOX IMVI melanoma
[21] = system: M14 melanoma
[22] = system: MALME-3M melanoma
[23] = system: MCF7 breast
[24] = system: MDA-MB-231 breast
[25] = system: MDA-MB-435 melanoma
[26] = system: MDA-MB-468 breast
[27] = system: MOLT-4 leukemia
[28] = system: NCI-H226 lung
[29] = system: NCI-H23 lung
[30] = system: NCI-H322M lung
[31] = system: NCI-H460 NSCLC
[32] = system: NCI-H522 lung
[33] = system: NCI/ADR-RES ovarian
[34] = system: OVCAR-3 ovarian
[35] = system: OVCAR-4 ovarian
[36] = system: OVCAR-5 ovarian
[37] = system: OVCAR-8 ovarian
[38] = system: PC-3 prostate
[39] = system: RPMI-8226 leukemia
[40] = system: RXF 393 renal
[41] = system: SF-268 CNS
[42] = system: SF-295 CNS
[43] = system: SF-539 CNS
[44] = system: SK-MEL-2 melanoma
[45] = system: SK-MEL-28 melanoma
[46] = system: SK-MEL-5 melanoma
[47] = system: SK-OV-3 ovarian
[48] = system: SN12C renal
[49] = system: SNB-19 CNS
[50] = system: SR leukemia
[51] = system: SW-620 colon
[52] = system: T-47D breast
[53] = system: TK-10 renal
[54] = system: U251 glioblastoma
[55] = system: UACC-257 melanoma
[56] = system: UACC-62 melanoma
[57] = system: UO-31 renal

## Nc1ccc(/C=C/C(=O)NCc2cc3cc(-c4ccc(C(=O)N5CCC(F)(F)CC5)cc4)cc(-c4ccc(F)cc4)c3o2)cn1
[1]
  GI50: 117 nM
  TGI: 249 nM
[2]
  GI50: 2270 nM
  TGI: 33400 nM
[3]
  GI50: 252 nM
  TGI: 699 nM
[4]
  GI50: 121 nM
  TGI: 348 nM
[5]
  GI50: 211 nM
  TGI: 461 nM
[6]
  GI50: 120 nM
  TGI: 282 nM
[7]
  GI50: 21.4 nM
  TGI: 37.2 nM
[8]
  GI50: 22.7 nM
  TGI: 53.4 nM
[9]
  GI50: 259 nM
  TGI: 641 nM
[10]
  GI50: 114 nM
  TGI: 270 nM
[11]
  GI50: 20.6 nM
  TGI: 40.7 nM
[12]
  GI50: 250 nM
  TGI: 741 nM
[13]
  GI50: 22.8 nM
  TGI: 37.6 nM
[14]
  GI50: 65.6 nM
  TGI: 242 nM
[15]
  GI50: 441 nM
  TGI: 1830 nM
[16]
  GI50: 331 nM
  TGI: 985 nM
[17]
  GI50: 131 nM
  TGI: 265 nM
[18]
  GI50: 33.3 nM
  TGI: 175 nM
[19]
  GI50: 58.6 nM
  TGI: 210 nM
[20]
  GI50: 567 nM
  TGI: 2020 nM
[21]
  GI50: 328 nM
  TGI: 1390 nM
[22]
  GI50: 374 nM
  TGI: 916 nM
[23]
  GI50: 213 nM
  TGI: 485 nM
[24]
  GI50: 549 nM
  TGI: 1950 nM
[25]
  GI50: 146 nM
  TGI: 283 nM
[26]
  GI50: 190 nM
  TGI: 384 nM
[27]
  GI50: 21.9 nM
  TGI: 39.2 nM
[28]
  GI50: 7380 nM
  TGI: > 100000 nM
[29]
  GI50: 218 nM
  TGI: 430 nM
[30]
  GI50: 34.7 nM
  TGI: 139 nM
[31]
  GI50: 437 nM
  TGI: 1570 nM
[32]
  GI50: 18.1 nM
  TGI: 34.8 nM
[33]
  GI50: 307 nM
  TGI: 1140 nM
[34]
  GI50: 53.9 nM
  TGI: 217 nM
[35]
  GI50: 212 nM
  TGI: 472 nM
[36]
  GI50: 21.5 nM
  TGI: 44 nM
[37]
  GI50: 16.8 nM
  TGI: 32.8 nM
[38]
  GI50: 48.1 nM
  TGI: 165 nM
[39]
  GI50: 58.7 nM
  TGI: 191 nM
[40]
  GI50: 105 nM
  TGI: 255 nM
[41]
  GI50: 175 nM
  TGI: 325 nM
[42]
  GI50: 188 nM
  TGI: 368 nM
[43]
  GI50: 15.5 nM
  TGI: 30.3 nM
[44]
  GI50: 41.4 nM
  TGI: 108 nM
[45]
  GI50: 223 nM
  TGI: 410 nM
[46]
  GI50: 174 nM
  TGI: 360 nM
[47]
  GI50: 20.9 nM
  TGI: 49.1 nM
[48]
  GI50: 17.6 nM
  TGI: 32 nM
[49]
  GI50: 28 nM
  TGI: 82 nM
[50]
  GI50: 1330 nM
  TGI: 2690 nM
[51]
  GI50: 23.9 nM
  TGI: 53.4 nM
[52]
  GI50: 20.1 nM
  TGI: 50.6 nM
[53]
  GI50: 210 nM
  TGI: 404 nM
[54]
  GI50: 35.6 nM
  TGI: 148 nM
[55]
  GI50: 504 nM
  TGI: 2910 nM
[56]
  GI50: 206 nM
  TGI: 427 nM
[57]
  GI50: 52.3 nM
  TGI: 174 nM

From PubChem BioAssay (NCI)
